Where “and” joins values, the source holds several entries; their conditions need not be identical. Identical values can stand only once. Inconclusive results and toxic doses are left out. No stated cut-off is given here; in the data, active means T/C of 150% or more; inactive means T/C below 125%.
Test system: L1210 leukemia ip in BDF1 mice, survival T/C
Experiment: NCI In Vivo Anticancer Drug Screen. Data for tumor model L1210 Leukemia (intraperitoneal) in B6D2F1 (BDF1) mice
Conditions: endpoint: mean survival time, higher = longer survival
Method in brief: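 Transplantable tumor model; survival measured in treated vs vehicle control mice. Value = treated/control.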

[1] = dose: 100.0 mg/kg/injection, schedule: Q04DX003 (ip), vehicle: Klucel (hydroxypropylcellulose) (HPC)
[2] = dose: 200.0 mg/kg/injection, schedule: Q04DX003 (ip), vehicle: Klucel (hydroxypropylcellulose) (HPC)
[3] = dose: 400.0 mg/kg/injection, schedule: Q04DX003 (ip), vehicle: Klucel (hydroxypropylcellulose) (HPC)
[4] = dose: 50.0 mg/kg/injection, schedule: Q01DX001 (ip), vehicle: carboxymethylcellulose (CMC)
[5] = dose: 100.0 mg/kg/injection, schedule: Q01DX001 (ip), vehicle: carboxymethylcellulose (CMC)
[6] = dose: 200.0 mg/kg/injection, schedule: Q01DX001 (ip), vehicle: carboxymethylcellulose (CMC)
[7] = dose: 400.0 mg/kg/injection, schedule: Q01DX001 (ip), vehicle: carboxymethylcellulose (CMC)
[8] = dose: 50.0 mg/kg/injection, schedule: Q01DX009 (ip), vehicle: Klucel (hydroxypropylcellulose) (HPC)
[9] = dose: 100.0 mg/kg/injection, schedule: Q04DX003 (ip), vehicle: saline
[10] = dose: 100.0 mg/kg/injection, schedule: Q01DX009 (ip), vehicle: Klucel (hydroxypropylcellulose) (HPC)
[11] = dose: 200.0 mg/kg/injection, schedule: Q01DX009 (ip), vehicle: Klucel (hydroxypropylcellulose) (HPC)
[12] = dose: 25.0 mg/kg/injection, schedule: Q01DX009 (ip), vehicle: saline with Tween-80
[13] = dose: 50.0 mg/kg/injection, schedule: Q01DX009 (ip), vehicle: saline with Tween-80
[14] = dose: 100.0 mg/kg/injection, schedule: Q01DX009 (ip), vehicle: saline with Tween-80
[15] = dose: 200.0 mg/kg/injection, schedule: Q04DX003 (ip), vehicle: saline
[16] = dose: 400.0 mg/kg/injection, schedule: Q04DX003 (ip), vehicle: saline
[17] = dose: 100.0 mg/kg/injection, schedule: Q04DX003 (ip), vehicle: saline with Tween-80
[18] = dose: 200.0 mg/kg/injection, schedule: Q04DX003 (ip), vehicle: saline with Tween-80
[19] = dose: 400.0 mg/kg/injection, schedule: Q04DX003 (ip), vehicle: saline with Tween-80
[20] = dose: 200.0 mg/kg/injection, schedule: Q01DX009 (ip), vehicle: saline with Tween-80

Measured: T/C

Cc1nc(N)[nH]c(=O)c1CCCNC(=O)Cc1ccccc1
inactive: dose: 12.5 mg/kg/injection, schedule: Q01DX001 (ip), vehicle: Klucel (hydroxypropylcellulose) (HPC) 105 % of control | dose: 25.0 mg/kg/injection, schedule: Q01DX001 (ip), vehicle: Klucel (hydroxypropylcellulose) (HPC) 97 % of control | dose: 50.0 mg/kg/injection, schedule: Q01DX001 (ip), vehicle: Klucel (hydroxypropylcellulose) (HPC) 100 % of control

Nc1c(I)cc([N+](=O)[O-])cc1I
inactive: [1] 95 % of control | [2] 93 % of control | [3] 98 % of control

CCOC(=O)NC(NC(=O)OCC)c1ccc2c(c1)OCO2
inactive: [4] 105 % of control | [5] 96 % of control | [6] 91 % of control | [7] 94 % of control

CC(=O)Oc1c2ccccc2cc2c1ccc1ccccc12
inactive: dose: 100.0 mg/kg/injection, schedule: Q04DX002 (ip), vehicle: Klucel (hydroxypropylcellulose) (HPC) 119 % of control | dose: 200.0 mg/kg/injection, schedule: Q04DX002 (ip), vehicle: Klucel (hydroxypropylcellulose) (HPC) 100 % of control | dose: 400.0 mg/kg/injection, schedule: Q04DX002 (ip), vehicle: Klucel (hydroxypropylcellulose) (HPC) 106 % of control

CC(=O)c1c(O)c(Br)c(C)oc1=O
inactive: dose: 6.25 mg/kg/injection, schedule: Q01DX009 (ip), vehicle: Klucel (hydroxypropylcellulose) (HPC) 100 % of control | dose: 12.5 mg/kg/injection, schedule: Q01DX009 (ip), vehicle: Klucel (hydroxypropylcellulose) (HPC) 96 % of control | dose: 25.0 mg/kg/injection, schedule: Q01DX009 (ip), vehicle: Klucel (hydroxypropylcellulose) (HPC) 93 % of control | [8] 89 % of control

Cc1cccc[n+]1CC(=O)c1ccccc1
inactive: [9] 94 % of control

CC(C)N(C(=O)COc1ccc(Cl)cc1)c1ccccc1
inactive: [8] 103 % of control | [10] 104 % of control | [1] 108 % of control | [11] 92 % of control | [2] 93 % of control

O=C(O)C(Br)C(Br)C(=O)Nc1cccc2ccccc12 (configuration not stated)
inactive: [12] 97 % of control | [13] 96 % of control | [14] 96 % of control and 98 % of control

CC(=O)NCCOc1ccc([N+](=O)[O-])cc1Cl
inactive: dose: 100.0 mg/kg/injection, schedule: Q01DX001 (ip), vehicle: Klucel (hydroxypropylcellulose) (HPC) 100 % of control | dose: 200.0 mg/kg/injection, schedule: Q01DX001 (ip), vehicle: Klucel (hydroxypropylcellulose) (HPC) 110 % of control

COC(=O)c1ccc(N(C)CCC(C)=O)cc1
inactive: dose: 100.0 mg/kg/injection, schedule: Q01DX001 (ip), vehicle: other 97 % of control | dose: 200.0 mg/kg/injection, schedule: Q01DX001 (ip), vehicle: other 95 % of control | dose: 400.0 mg/kg/injection, schedule: Q01DX001 (ip), vehicle: other 106 % of control

O=C(O)C(S)C(S)C(=O)O.[As] (configuration not stated)
inactive: dose: 12.5 mg/kg/injection, schedule: Q01DX009 (ip), vehicle: saline 96 % of control | dose: 25.0 mg/kg/injection, schedule: Q01DX009 (ip), vehicle: saline 104 % of control | dose: 50.0 mg/kg/injection, schedule: Q01DX009 (ip), vehicle: saline 98 % of control

C=CC(=O)Nc1ccc(Cl)cc1
inactive: dose: 25.0 mg/kg/injection, schedule: Q04DX003 (ip), vehicle: Klucel (hydroxypropylcellulose) (HPC) 98 % of control | dose: 50.0 mg/kg/injection, schedule: Q04DX003 (ip), vehicle: Klucel (hydroxypropylcellulose) (HPC) 96 % of control | [1] 107 % of control and 90 % of control

CC(N)C(C)O (configuration not stated)
inactive: [9] 96 % of control | [15] 101 % of control | [16] 101 % of control

NC(=O)Nc1cccc(C(=O)O)c1
inactive: [10] 89 % of control | [1] 92 % of control | [11] 87 % of control | [2] 92 % of control | dose: 400.0 mg/kg/injection, schedule: Q01DX009 (ip), vehicle: Klucel (hydroxypropylcellulose) (HPC) 87 % of control | [3] 96 % of control

CN(C)N=Nc1ccc(S(N)(=O)=O)cc1
inactive: dose: 50.0 mg/kg/injection, schedule: Q01DX001 (ip), vehicle: saline with Tween-80 98 % of control | dose: 50.0 mg/kg/injection, schedule: Q04DX003 (ip), vehicle: saline with Tween-80 103 % of control and 105 % of control | dose: 100.0 mg/kg/injection, schedule: Q01DX001 (ip), vehicle: saline with Tween-80 102 % of control | [17] 103 % of control and 105 % of control | dose: 200.0 mg/kg/injection, schedule: Q01DX001 (ip), vehicle: saline with Tween-80 104 % of control | [18] 105 % of control | dose: 400.0 mg/kg/injection, schedule: Q01DX001 (ip), vehicle: saline with Tween-80 105 % of control | [19] 106 % of control and 112 % of control

O=C(NC(Cc1ccccc1)C(=O)CCl)OCc1ccccc1 (configuration not stated)
inactive: [12] 115 % of control | dose: 25.0 mg/kg/injection, schedule: Q04DX002 (ip), vehicle: other 107 % of control | [13] 95 % of control | dose: 50.0 mg/kg/injection, schedule: Q04DX002 (ip), vehicle: other 93 % of control | dose: 100.0 mg/kg/injection, schedule: Q04DX002 (ip), vehicle: other 104 % of control | dose: 100.0 mg/kg/injection, schedule: Q04DX003 (ip), vehicle: saline sonified 108 % of control

CC(=O)OCCN1CCC(n2ccc(=O)[nH]c2=O)C1=O (configuration not stated)
inactive: [9] 104 % of control | [15] 104 % of control | [16] 106 % of control

Nc1cc(O)cc(O)c1
inactive: [14] 95 % of control | [17] 91 % of control | [20] 95 % of control | [18] 98 % of control | dose: 400.0 mg/kg/injection, schedule: Q01DX009 (ip), vehicle: saline with Tween-80 102 % of control | [19] 89 % of control

[O-]c1c[n+](-c2ccc3ccccc3c2)no1
inactive: dose: 100.0 mg/kg/injection, schedule: Q04DX003 (ip), vehicle: carboxymethylcellulose (CMC) 114 % of control | dose: 200.0 mg/kg/injection, schedule: Q04DX003 (ip), vehicle: carboxymethylcellulose (CMC) 110 % of control | dose: 400.0 mg/kg/injection, schedule: Q04DX003 (ip), vehicle: carboxymethylcellulose (CMC) 104 % of control

O=C(NCCc1ccccc1)c1ccc2ccccc2n1
inactive: dose: 3.12 mg/kg/injection, schedule: Q01DX009 (ip), vehicle: DMSO 93 % of control | dose: 6.25 mg/kg/injection, schedule: Q01DX009 (ip), vehicle: DMSO 93 % of control | dose: 12.5 mg/kg/injection, schedule: Q01DX009 (ip), vehicle: DMSO 91 % of control | dose: 25.0 mg/kg/injection, schedule: Q01DX009 (ip), vehicle: DMSO 90 % of control | dose: 100.0 mg/kg/injection, schedule: Q04DX003 (ip), vehicle: DMSO 95 % of control | dose: 200.0 mg/kg/injection, schedule: Q04DX003 (ip), vehicle: DMSO 97 % of control | dose: 400.0 mg/kg/injection, schedule: Q04DX003 (ip), vehicle: DMSO 95 % of control

O=C(Nc1ccccc1)Nc1cccc(C(F)(F)F)c1
inactive: [4] 104 % of control | [5] 102 % of control | [6] 107 % of control | [7] 109 % of control

CCOC(=O)CCCCCCCCCCNC(=O)NCc1ccccc1
inactive: dose: 100.0 mg/kg/injection, schedule: Q04DX002 (ip), vehicle: saline with Tween-80 90 % of control | dose: 200.0 mg/kg/injection, schedule: Q04DX002 (ip), vehicle: saline with Tween-80 87 % of control | dose: 400.0 mg/kg/injection, schedule: Q04DX002 (ip), vehicle: saline with Tween-80 97 % of control

Cc1ccc(C(=O)NCCCOc2ccc(N)cc2Cl)cc1S(=O)(=O)F
inactive: [13] 104 % of control | [14] 95 % of control | [17] 103 % of control | [20] 90 % of control | [18] 94 % of control | [19] 105 % of control

Reference: PubChem BioAssay AID248 (DTP/NCI, 2004)
